According to ChEMBL document CHEMBL1139473, “Design, synthesis, and biological evaluation of dual binding site acetylcholinesterase inhibitors: new disease-modifying agents for Alzheimer's disease” (J Med Chem, 2005):

What was measured:
Cholinesterase = Cholinesterase (Homo sapiens, UniProt P06276)
Description: Inhibition of human serum BChE

SH-SY5Y = test: Cytotoxicity against human SHSY5Y cells at 10 uM after 48 hrs; format: cell-based
[1] = target: Cholinesterases; ACHE & BCHE (Homo sapiens) (UniProt P06276+P22303); test: Selectivity for human BChE over human AChE; format: protein assay
Cholinesterases; ACHE & BCHE (Homo sapiens), sequence (P06276 whole entry, looked up): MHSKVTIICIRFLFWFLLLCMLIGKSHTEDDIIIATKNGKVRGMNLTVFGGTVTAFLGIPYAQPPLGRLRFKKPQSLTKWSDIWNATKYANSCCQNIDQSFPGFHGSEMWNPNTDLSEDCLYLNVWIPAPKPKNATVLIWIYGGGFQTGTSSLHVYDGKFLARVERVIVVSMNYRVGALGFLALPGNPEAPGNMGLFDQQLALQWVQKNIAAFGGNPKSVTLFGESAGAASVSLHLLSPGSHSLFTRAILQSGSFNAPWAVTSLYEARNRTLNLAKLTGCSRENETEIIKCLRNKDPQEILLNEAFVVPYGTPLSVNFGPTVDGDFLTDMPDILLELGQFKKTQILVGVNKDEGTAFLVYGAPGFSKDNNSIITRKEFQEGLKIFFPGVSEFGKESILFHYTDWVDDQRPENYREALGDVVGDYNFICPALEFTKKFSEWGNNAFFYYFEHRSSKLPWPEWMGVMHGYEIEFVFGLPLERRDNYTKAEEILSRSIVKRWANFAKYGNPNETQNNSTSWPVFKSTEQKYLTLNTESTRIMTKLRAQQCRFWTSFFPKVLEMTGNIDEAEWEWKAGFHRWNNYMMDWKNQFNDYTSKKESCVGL
Cholinesterases; ACHE & BCHE (Homo sapiens), sequence (P22303 whole entry, looked up): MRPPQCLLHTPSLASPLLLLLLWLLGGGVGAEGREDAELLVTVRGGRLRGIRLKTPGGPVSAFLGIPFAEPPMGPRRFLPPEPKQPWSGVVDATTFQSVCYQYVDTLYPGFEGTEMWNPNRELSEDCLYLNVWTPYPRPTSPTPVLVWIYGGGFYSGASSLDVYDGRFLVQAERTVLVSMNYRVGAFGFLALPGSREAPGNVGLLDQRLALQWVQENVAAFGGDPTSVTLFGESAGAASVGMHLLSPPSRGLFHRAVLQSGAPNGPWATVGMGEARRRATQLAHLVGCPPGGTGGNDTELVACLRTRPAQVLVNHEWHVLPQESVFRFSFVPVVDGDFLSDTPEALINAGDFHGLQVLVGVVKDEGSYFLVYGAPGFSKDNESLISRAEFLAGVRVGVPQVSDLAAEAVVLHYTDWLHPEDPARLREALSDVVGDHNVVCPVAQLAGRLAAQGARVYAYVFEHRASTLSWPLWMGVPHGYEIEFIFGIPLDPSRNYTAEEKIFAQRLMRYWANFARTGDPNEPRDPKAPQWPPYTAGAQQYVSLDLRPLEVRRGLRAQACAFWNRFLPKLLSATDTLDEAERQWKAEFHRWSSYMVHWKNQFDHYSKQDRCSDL

Acetylcholinesterase [2] = target: T1, Acetylcholinesterase (Homo sapiens, UniProt P22303); test: Inhibition of human AChE-induced beta amyloid peptide(1-40) aggregation at 100 uM by thioflavin T-based fluorometric assay; format: functional
T1 sequence (P22303 whole entry): as the sequence (P22303 whole entry, looked up) above

Acetylcholinesterase [3] = target: T1, Acetylcholinesterase
Description: Inhibition of human brain AchE

Acetylcholinesterase [4] = target: T1, Acetylcholinesterase; remark: listed apart in the source
Acetylcholinesterase [5] = target: T2, Acetylcholinesterase (Bos taurus, UniProt P23795); test: biochemical
T2 sequence (P23795 whole entry): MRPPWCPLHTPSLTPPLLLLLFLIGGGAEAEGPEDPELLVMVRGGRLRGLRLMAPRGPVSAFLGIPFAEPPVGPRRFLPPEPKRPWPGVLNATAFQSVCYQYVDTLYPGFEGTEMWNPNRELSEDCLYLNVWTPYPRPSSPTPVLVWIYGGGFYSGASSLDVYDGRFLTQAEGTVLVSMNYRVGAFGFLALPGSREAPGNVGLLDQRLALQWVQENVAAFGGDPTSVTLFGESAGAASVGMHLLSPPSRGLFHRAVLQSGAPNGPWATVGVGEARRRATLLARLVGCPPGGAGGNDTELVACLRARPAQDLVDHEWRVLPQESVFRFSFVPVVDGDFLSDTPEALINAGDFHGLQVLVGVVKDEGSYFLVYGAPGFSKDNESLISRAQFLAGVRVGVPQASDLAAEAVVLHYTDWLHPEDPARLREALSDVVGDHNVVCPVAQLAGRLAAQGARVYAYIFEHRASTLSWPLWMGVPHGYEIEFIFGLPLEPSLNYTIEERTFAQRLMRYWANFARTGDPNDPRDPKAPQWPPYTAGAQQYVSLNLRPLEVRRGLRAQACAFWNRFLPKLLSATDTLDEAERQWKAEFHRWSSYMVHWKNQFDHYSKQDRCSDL
Description: Inhibition of AchE in bovine erythrocytes

Cholinesterase, sequence (P06276 whole entry): as the sequence (P06276 whole entry, looked up) above

Row | SMILES | IC50 (Cholinesterase) [nM] | Activity (SH-SY5Y) | Ratio IC50 [1] | inhibition (Acetylcholinesterase [2]) [%] | IC50 (Acetylcholinesterase [3]) [nM] | Ki (Acetylcholinesterase [3]) [nM] | IC50 (Acetylcholinesterase [4]) [µM] | IC50 (Acetylcholinesterase [5]) [nM]
1 | O=C(CCc1c[nH]c2ccccc12)NCCCCCCCCCc1c2c(nc3cc(Cl)ccc13)CCCC2 | 9.6 | – | – | – | – | – | – | –
2 | CN(CCCNC(=O)CCc1c[nH]c2ccccc12)CCCNc1c2c(nc3cc(Cl)ccc13)CCCC2 | 21.4 | Active | – | – | – | – | – | –
3 | O=C(CCc1c[nH]c2ccccc12)NCCCCCCCNc1c2c(nc3cc(Cl)ccc13)CCCC2 | – | Active | 0.22 | 96 | 0.02 | 0.009 | 6 | –
4 | O=C(CCOc1c[nH]c2ccccc12)NCCCCCCCNc1c2c(nc3cc(Cl)ccc13)CCCC2 | 59 | – | – | – | – | – | – | 3
5 | O=C(Cc1c[nH]c2ccccc12)NCCCCCCCNc1c2c(nc3cc(Cl)ccc13)CCCC2 | 11.7 | – | 0.01 | 84 | 0.12 | 0.015 | 7 | 0.2
6 | O=C(CCCc1c[nH]c2ccccc12)NCCCCCCNc1c2c(nc3cc(Cl)ccc13)CCCC2 | – | – | – | – | – | – | – | 0.5
7 | O=C(CCc1c[nH]c2ccccc12)NCCCCCCCCNc1c2c(nc3cc(Cl)ccc13)CCCC2 | – | Active | – | – | – | – | – | –
8 | O=C(CCCc1c[nH]c2ccccc12)NCCCCCNc1c2c(nc3cc(Cl)ccc13)CCCC2 | 3.2 | – | 0.04 | 99 | 0.13 | 0.0017 | 2 | 0.3
9 | O=C(CCc1c[nH]c2ccccc12)NCCCCCNc1c2c(nc3cc(Cl)ccc13)CCCC2 | 16 | – | – | – | – | – | – | –
10 | N#Cc1ccc2[nH]cc(CCC(=O)NCCCCCCNc3c4c(nc5cc(Cl)ccc35)CCCC4)c2c1 | 11.7 | – | – | – | – | – | – | 0.7
11 | Cn1cc(C(=O)NCCCCCCCNc2c3c(nc4cc(Cl)ccc24)CCCC3)c2ccccc21 | 206 | – | – | – | – | – | – | 10.9
12 | O=C(Cc1c[nH]c2ccc(Br)cc12)NCCCCCCCNc1c2c(nc3cc(Cl)ccc13)CCCC2 | – | – | 0.14 | 82 | 0.23 | 0.02 | 15 | 0.6
13 | O=C(CCOc1c[nH]c2ccccc12)NCCCCCNc1c2c(nc3cc(Cl)ccc13)CCCC2 | 136 | – | – | – | – | – | – | 1.5
14 | O=C(CCc1c[nH]c2ccccc12)NCCCCCCNc1c2c(nc3cc(Cl)ccc13)CCCC2 | – | – | 0.02 | 98 | 0.07 | 0.014 | 2 | –
15 | O=C(CCc1c[nH]c2ccccc12)NCCCCCCCCCCNc1c2c(nc3ccccc13)CCCC2 | 54 | – | – | – | – | – | – | 21.9
16 | O=C(/C=C/c1c[nH]c2ccccc12)NCCCCCCNc1c2c(nc3cc(Cl)ccc13)CCCC2 | 77 | – | – | – | – | – | – | 18
17 | O=C(CCOc1c[nH]c2ccccc12)NCCCCCCNc1c2c(nc3cc(Cl)ccc13)CCCC2 | 60 | – | – | – | – | – | – | 0.7
